Source: patent publication US11958843B1, “2-(benzo[d]oxazol-2-yl)-n′-(2-(5-phenyl-1,3,4-oxadiazol-2-ylthio)acetoxy)acetimidamide as an antimicrobial compound” (priority 2023, dated 2024)

Test system: Bacillus cereus, Staphylococcus aureus, Pseudomonas aeruginosa, Escherichia coli, Aspergillus flavus, Chrysosporium keratinophilum
Experiment: Agar plate disc-diffusion antimicrobial activity
Assay type: cell-based
Details: disc wetted with 10 μL of 10 mg/mL in DMSO; 37° C., 48 h (72 h for fungi); gram positive and gram-negative bacteria and fungi; result in words only
Description: The agar plate disc-diffusion method was applied. Sterilized filter papers (6 mm in diameter) were wetted with 10 μL of a solution of 2-(benzo[d]oxazol-2-yl)-N′-(2-(5-phenyl-1,3,4-oxadiazol-2-ylthio)acetoxy)acetimidamide (3) to be tested, containing 10 mg/mL in DMSO, and the discs were allowed to air dry. The discs were then placed onto the surface of agar plates (nutrient agar for bacteria and Sabouraud's dextrose agar for fungi) seeded with the test organism. Each plate contained 15 mL of the agar medium, previously seeded with 0.2 mL of the broth culture of each organism pregrown for 18 hours. The plates were incubated at 37° C. for 48 h, and 72 h for fungi. The inhibition zones were measured in mm. Discs impregnated with DMSO were used as a control, and its inhibition zone was subtracted from the tested compound actual inhibition zone. […] The antibacterial activity was screened against gram positive bacteria namely Bacillus cereus and Staphylococcus aureus and gram-negative bacterial strains namely Pseudomonas aeruginosa and Escherichia coli, while the antifungal activity was screened against Aspergillus flavus and Chrysosporium keratinophilum.

Structure (SMILES): N/C(Cc1nc2ccccc2o1)=N\OC(=O)CSc1nnc(-c2ccccc2)o1 [compound 3, 2-(benzo[d]oxazol-2-yl)-N′-(2-(5-phenyl-1,3,4-oxadiazol-2-ylthio)acetoxy)acetimidamide]
- antimicrobial activities (inhibition zones): high antimicrobial activities
